# Assay results as given in patent US20160090351A1, “INHIBITORS OF DEUBIQUITINATING PROTEASES” (BRANDEIS UNIVERSITY, priority 2013, published 2016).
# Legend:
# DUBs = test: decomposition of high molecular weight ubiquitinated proteins (HMW-Ub) in lysates of HEK 293T cells expressing HA-Ub; format: biochemical, human; conditions: for DUB inhibitory activity, SAR in words: relative to C4 or parent analog
# Protocol: FIG. 30 depicts data showing that diphenylcarbonates inhibit the decomposition of high molecular weight ubiquitinated proteins (HMW-Ub). Lysates were prepared from HEK 293T cells expressing HA-ubiquitin. Samples were incubated at 37° C. and reactions were quenched by the addition of reducing Laemmli buffer. HMW-Ub was assessed by SDS-PAGE and immunoblotting with anti-HA antibody. A. Representative immunoblots measuring the decomposition of HMW-Ub in lysates treated with either the DMSO vehicle, G5 (10 μM) or C4 (500 μM). B. Plot of the decomposition of HMW-Ub in lysates treated with DMSO and C4 (500 μM) (N=2; error bars denote range). C. Inhibition of HMW-Ub decomposition by diphenylcarbonates. Lysates were treated with diphenylcarbonates (50 μM). “-” denotes no treatment; D, 1% DMSO vehicle; IU1, an USP14-specific inhibitor; Bort, bortezomib, a proteasome inhibitor. D. Representative decomposition of HMW-Ub after 2 h incubation in the presence of varying concentrations of C4. See also FIG. 36. E. Quantitation of D. The values of EC50 reported in FIG. 29B are the average and S.E.M. of at least 3 independent experiments. See also FIG. 37 and FIG. 38.
# Cells overexpressing HA-ubiquitin were prepared as above. Pellets were typically stored at −80° C. until required, at which time they were thawed on ice. Cell lysis was performed in lysis buffer using a Dounce homogenizer (10 strokes, with grinding, on ice: typical yield approx. 2-5 mg protein per transfected T75 flask for HEK 293T cells; 1-3 mg protein from a T75 flask for Cos-1). Crude lysate was centrifuged at 17000 g for 10 min at 4° C., after which time the concentration of the lysate was normalized to 1 mg/mL. The lysate was aliquoted into PCR strip tubes (typical volumes 75-50 μL) and compound in DMSO was added to this to give a final concentration of DMSO of 1%. Tubes were briefly centrifuged, overlaid with Chill-out wax (50 μL) and placed in a PCR machine at 37° C. with heated lid set to 37° C. Aliquots (9 μL) were removed at the stated times and immediately quenched in (2× final concentration) reducing (dithiothreitol) loading buffer and frozen (−19° C.) till required. Western blot analysis was carried out using standard methods. Samples were resolved by SDS-PAGE, transferred to PVDF [(0.45 μm) (Towbin buffer, tank apparatus, 90 V 1 hour, then overnight at 30 V, 4° C.)] then blocked in 15% milk in TBS-T HS (100 mM Tris HCl, pH 7.6, 500 mM NaCl, 0.5% […]) for at least 2 hours at RT. Afterward, membrane was washed in TBS-T HS then probed with anti HA-HRP (1:18000) for 1.33 hours at RT. Membrane was washed 3 times in TBS-T HS (15 mins) then once in TBS (15 mins) and exposed to ECL II and visualized using blue biofilm. […] When required, membranes were stripped in 100 mM glycine pH 4, 500 mM NaCl, 1% SDS, 5 mM BME, at 55° C. for 19 mins, then analyzed.
# Lysates were prepared from HEK 293T cells expressing N-terminally HA-tagged ubiquitin (HA-Ub) to facilitate the observation of ubiquitinated proteins. In the absence of a DUB inhibitor, the HMW-Ub pool decomposed with a half-life of 34 min (FIG. 30A,B). […] Similar results were obtained in lysates prepared from Cos-1 cells expressing HA-Ub.
# [1] = system: USP9x, USP19, USP7/8, USP28/15; test: HA-Ub-VS activity profiling in cell lysates, USPs; format: biochemical, human; conditions: for HA-Ub-VS labeling of USPs: HEK 293T lysates
# Protocol: HA-ubiquitin vinylsulfone (HA-Ub-VS) irreversibly labels DUBs by modifying the catalytic cysteine residue Inhibition of the DUB prevents HA-Ub-VS labeling and the band is. […] The interaction with UCHL1/3 is reversible.
# Lysate labeling assay on untransfected cells (1.5 mg/mL) was run with the stated concentration of inhibitor (or 1% DMSO control) for between 19-60 mins. After this time HA-Ub-VS (1.5-0.7 μM) was added and incubated for 19 mins. After this time reaction mixture (9 μL) was removed and quenched in 2× (final concentration) reducing loading buffer. For recovery experiments, a lysate of 6 mg/mL was treated with saturating compound C14 (250 μM) and incubated for 40 mins. Afterward, the lysate was diluted to 0.6 mg/mL (final concentration of inhibitor 25 μM) in lysis buffer (final volume 100 μL), then HA-Ub-VS was added. Aliquots (15 μL) were removed at the stated time (5-119 mins) and immediately quenched in 2× (final concentration) reducing loading buffer. For all HA-Ub-VS experiments samples in loading buffer were heated only to 37° C. prior to loading on a gel. This assay is highly susceptible to concentration of lysate and HA-Ub-VS. Cell experiments were carried out as above with some modifications. For Cos-1 and MCF-7 cells, after trypsinization, media with compound was added to give a final concentration of compound equal to that used in the assay. Cell pellets were lysed on an ice/salt bath with a temperature of −5° C. and lysate was centrifuged for only 5 mins.
# HA-Ub-VS is an irreversible inhibitor of DUBs that is widely used in activity profiling. If the DUB inhibitors react to form a thiocarbonylated enzyme as proposed (FIG. 29B), then HA-Ub-VS labeling will be blocked. Treatment of HEK 293T lysates with HA-Ub-VS produced the characteristic pattern of protein bands at 250, 150-100, 45, 38 and 36 kDa, generally ascribed to USP9x (292 kDa), USP19 (146 kDa), USP7/8 (128 and 127 kDa, respectively), USP28/15 (122 and 112 kDa, respectively), UCH-L5 (38 kDa), UCH-L3 (26 kDa) and UCH-L1 (25 kDa) as depicted in FIG. 31.
# The effect of diphenylcarbonates on HA-Ub-VS labeling was assessed to investigate the selectivity of DUB inhibition. Lysates were preincubated with diphenyl carbonates (75 μM), then treated with HA-Ub-VS (FIG. 31A). […] These C17 and C22-sensitive DUBs are most likely USP9x, USP19, USP7/8 and UCHL5, based on molecular weight (FIGS. 31B and 38). The identity of USP7 was confirmed by immunoblotting (FIG. 38F). […] Similar behavior was observed on Cos-1 cell lysates (FIG. 38B).
# [2] = 75 μM, 30 minutes preincubation
Structure (SMILES),increase of inhibitory potency relative to C4 (factor) (DUBs),"HA-Ub-VS labeling of USPs [1, 2]","DUB inhibitory activity, SAR in words (DUBs)","HA-Ub-VS labeling, dose response ([1]; at 12 μM)","stabilization of the HMW-Ub pool (DUBs; HEK 293T HA-Ub lysates, 37° C.)",HA-Ub-VS labeling of USPs ([1]; preincubation with G5)
"NCc1ccc(OC(=O)Oc2ccc(Cl)cc2)cc1 [Compound C14, 4-(aminomethyl)phenyl(4-chlorophenol)carbonate]",approximately 10,decreased HA-Ub-VS labeling of several USPs,–,–,–,–
NCc1ccc(OC(=O)Oc2ccc3ccccc3c2)cc1 [Compound C17],–,decreased HA-Ub-VS labeling of several USPs,improved potency relative to C4,significantly inhibited the labeling of several high molecular weight proteins,–,–
NCc1ccc(OC(=O)Oc2cccc3ccccc23)cc1 [Compound C18],–,decreased HA-Ub-VS labeling of several USPs,improved potency relative to C4,–,–,–
"O=C1/C(=C/c2ccc([N+](=O)[O-])cc2)CS(=O)(=O)C/C1=C\c1ccc([N+](=O)[O-])cc1 [Compound G5, reference compound]",–,–,–,–,stabilized the HMW-Ub pool,decreased the labeling of all the USPs
"NCc1ccc(OC(=O)Oc2ccc(Br)cc2)cc1 [Compound C15, 4-(aminomethyl)phenyl(4-bromophenyl)carbonate]",approximately 10,decreased HA-Ub-VS labeling of several USPs,–,–,–,–
